Series [1] has as its system Rattus norvegicus. The settings on record: M/F.
The subject of a further series is Oryctolagus sp. The following applies: acute, dermal.
Series [2] deals with Rattus norvegicus. The settings on record: for LC50 / LD50: acute.
Series [3] deals with Rattus norvegicus. The settings on record: oral.
The test system of series [4] is Rattus norvegicus. The following applies: Hershberger, duration: 10 days, oral, gavage.
Series [5] has as its system Rattus norvegicus. The settings on record: for NOAEL: diet.
Another series has as its system Mus musculus. The following applies: for LD50: acute.
The mark [6] stands for this setting: short-term, duration: 28 days, oral, diet, Sprague-Dawley.
Setting [7] is: short-term, duration: 28 days, gavage, M, Sprague-Dawley, Clinical Observation: Locomotor activity decrease, Salivation + Blood Chemistry: Ch E decrease.
The mark [8] stands for this setting: subchronic, duration: 13 weeks, oral, gavage, decreased testis weight and altered spermatogenesis in males. + Increased heart weight in females and males.
Setting [9] is: subchronic, duration: 90 days, oral, diet, Sprague-Dawley.
[10] abbreviates: chronic, duration: 2 years, oral, diet, reduced weight gain, organ weight changes, increased mortality.
Where [11] appears, read: chronic, duration: 2 years, oral, diet, reduced body weight.

The structures appear in SMILES notation. Bounds are passed on as bounds.

Molecule `CC(C)=CC1C(C(=O)OCc2coc(Cc3ccccc3)c2)C1(C)C` (centres undefined) [Resmethrin] displayed an LEL in the series with Rattus norvegicus [1] (reproduction developmental, oral, reproductive toxicity) of 25 mg/kg-day.

Regarding `Cc1ccc(OP(=O)(Oc2ccc(C)cc2)Oc2ccc(C)cc2)cc1.Cc1cccc(OP(=O)(Oc2cccc(C)c2)Oc2cccc(C)c2)c1.Cc1ccccc1OP(=O)(Oc1ccccc1C)Oc1ccccc1C` [Tris(methylphenyl) phosphate], the LD50 was above 10000 mg/kg with Oryctolagus sp. and above 20000 mg/kg in the series with Rattus norvegicus [2] (oral, gavage, Wistar). Further, the LC50 was above 5.2 µg/mL in the series with Rattus norvegicus [2] (Inhalation, Sprague-Dawley) and below 200 µg/mL with Rattus norvegicus [2] (inhalation, Wistar). The “LOAEL (% diet)” value in the series on Rattus norvegicus [2] (setting [6]) was 0.5. Further, the “NOAEL (% diet)” value in the series with Rattus norvegicus [2] (setting [6]) is 0.1. The NOAEL in the series with Rattus norvegicus [3] (setting [7]) is 200 mg/kg-day. Also, the NOEL is below 40 mg/kg-day in the series on Rattus norvegicus [3] (setting [7]); 65 mg/kg-day in the series on Rattus norvegicus [3] (subchronic, duration: 13 weeks, diet, F, Fischer 344, Clinical Observation: Emaciation + Body Weight Changes: decrease + Food Consumption: decrease + Hematology: Hct decrease, RBC decrease, Hgb …); below 86.4 mg/kg-day in the series on Rattus norvegicus [3] (subchronic, duration: 13 weeks, diet, M/F, Fischer 344, Clinical Observation: Emaciation + Body Weight Changes: decrease + Food Consumption: decrease + Hematology: Hct decrease, RBC decrease, Hgb …); below 50 mg/kg-day in the series on Rattus norvegicus [3] (subchronic, duration: 13 weeks, gavage, M/F, Fischer 344, Body Weight Changes: decrease + Hematology: Hct decrease, Hgb decrease, RBC decrease + Blood Chemistry: Ch E decrease + Absolute Organ …).

Consider `O=C([O-])CF.[Na+]` [Sodium fluoroacetate], for which, in the series with Rattus norvegicus [1] (setting [8]), the LOAEL came out at 0.2 mg/kg-day and the NOAEL was determined as 0.05 mg/kg-day.

On to `CCCC(c1cc(C(C)(C)C)c(O)cc1C)c1cc(C(C)(C)C)c(O)cc1C` [4,4'-Butane-1,1-diylbis(2-tert-butyl-5-methylphenol)], for which the LD50 was above 7940 mg/kg with Oryctolagus sp. (New Zealand) and above 7940 mg/kg with Rattus norvegicus [2] (oral, gavage, Sprague-Dawley). Moreover, the NOAEL in the series on Rattus norvegicus [2] (reproduction developmental, duration: 90 days, oral, diet, M, Sprague-Dawley) is 100 ppm; in the series on Rattus norvegicus [2] (setting [9]), 9.6 mg/kg-day. This molecule also had an LOAEL in the series with Rattus norvegicus [2] (setting [9]) of 48 mg/kg-day. Besides, the NOEL in the series with Rattus norvegicus [4] (Wistar, inactive + Negative + Negative + anti-androgenic + negative) is 125 mg/kg-day; in the series on Rattus norvegicus [4] (Wistar, inactive + Negative + Negative + anti-androgenic + negative / effects on thyroid at 125 (initial increase in T4 at 5)) it was 125 mg/kg-day.

`c1ccc(NNc2ccccc2)cc1` [1,2-Diphenylhydrazine] displayed an NOAEL in the series on Rattus norvegicus [5] (subchronic, duration: 13 weeks, oral, M, Fischer 344, hepatic) of 4.8 mg/kg-day.

In turn, `CC(C)Oc1cccc(NC(=O)c2ccccc2C(F)(F)F)c1` [Flutolanil] had an LEL with Rattus norvegicus [1] (reproduction developmental, oral, Decreased body weight and body weight gains in both doses increased liver weights at high dose) of 63.7 mg/kg-day. In addition, the NOEL in the series on Rattus norvegicus [4] (Sprague-Dawley, inactive + Negative + neither + negative) is 1000 mg/kg-day.

For `CC(Cl)CCl` (centres undefined) [1,2-Dichloropropane], in the series on Rattus norvegicus [3] (subchronic, duration: 13 weeks, gavage, M/F, Fischer 344, Deaths + Body Weight Changes: decrease + Histopathology: Liver/centrilobular-Congestion Liver-Hepatic fatty change Liver/centrilobular -…), the NOEL was 250 mg/kg-day. Moreover, the LOAEL was 69.3 mg/m3 in the series on Rattus norvegicus [1] (subchronic, duration: 13 weeks, inhalation, hyperplasia of the nasal mucosa); 462 mg/m3 with Rattus norvegicus [5] (short-term, duration: 2 weeks, inhalation, M/F, Fischer 344, respiratory); 100 mg/kg-day with Rattus norvegicus [5] (subchronic, duration: 13 weeks, oral, gavage, M, Sprague-Dawley, hematological).

Consider `O=C(CCl)c1ccccc1` [2-Chloroacetophenone], for which the LOAEL in the series on Rattus norvegicus [1] (chronic, inhalation, squamous hyperplasia of the nasal respiratory epithelium) is 1 mg/m3.

Regarding `C=CC(=O)NCO` [N-Methylolacrylamide], the LD50 with Mus musculus (oral, DD) worked out at 677 mg/kg; with Mus musculus (oral, gavage, B6C3F1), 400 mg/kg; in the series on Rattus norvegicus [2] (oral, gavage, Fischer 344), 400 mg/kg. For the same molecule, the NOAEL with Mus musculus (short-term, duration: 16 days, oral, gavage, B6C3F1) came out at 100 mg/kg-day; with Mus musculus (subchronic, duration: 90 days, oral, gavage, B6C3F1), 12.5 mg/kg-day; in the series with Rattus norvegicus [2] (short-term, duration: 16 days, oral, gavage, Fischer 344) it was 50 mg/kg-day; in the series with Rattus norvegicus [2] (short-term, duration: 28 days, oral, diet) it was 4 mg/kg-day; with Rattus norvegicus [2] (subchronic, duration: 90 days, oral, gavage, Fischer 344), 12.5 mg/kg-day. The NOEL with Rattus norvegicus [3] (subchronic, duration: 13 weeks, gavage, M/F, Fischer 344, Deaths + Clinical Observation: Hind limb paresis + Functional Observational Battery: Hind limb-grip strength decrease Auditory startle …) is below 12.5 mg/kg-day.

Regarding `[Mo]` [Molybdenum], the NOAEL in the series with Rattus norvegicus [5] (subchronic, duration: 90 days, oral, M/F, Sprague-Dawley, renal) was 17 mg/kg-day.

For the molecule `CCCCC(C)=O` [2-Hexanone], the LOAEL in the series on Rattus norvegicus [5] (chronic, duration: 13 months, oral, drinking water, M, Sprague-Dawley, neurological) worked out at 143 mg/kg-day.

With `CC1=C(C(=O)Nc2ccccc2)SCCO1` [Carboxin], in the series with Rattus norvegicus [1] (setting [10]), the LEL came to 30 mg/kg-day and the NOEL came out at 10 mg/kg-day.

In the series with Mus musculus (injection, intravenous), `CCCCCCCCCCCCCCC` [Pentadecane] gave an LD50 of 3490 mg/kg.

Molecule `CCOC(C)(C)C` [Ethyl t-butyl ether] displayed an NOAEL with Rattus norvegicus [1] (chronic, duration: 2 years, inhalation, Fischer 344, Increased absolute kidney weight in female rats) of 6270 mg/m3.

In the series on Rattus norvegicus [1] (setting [11]), `COC(=O)c1ccccc1S(=O)(=O)NC(=O)Nc1nc(C)nc(OC)n1` [Metsulfuron-methyl] had an LEL of 250 mg/kg-day and an NOEL of 25 mg/kg-day.

In the series with Rattus norvegicus [5] (short-term, duration: 11 days, inhalation, M/F, Fischer 344, respiratory), `C=C(Cl)CCl` [2,3-Dichloro-1-propene] registered an LOAEL of 22.7 mg/m3.

As to `CN(C)NC(=O)CCC(=O)O` [Daminozide], the NOEL in the series with Rattus norvegicus [1] (reproduction developmental, oral, no effects) was 15 mg/kg-day.

`COC(=O)Nc1cccc(OC(=O)Nc2cccc(C)c2)c1` [Phenmedipham] showed an NOAEL with Rattus norvegicus [1] (chronic, duration: 2 years, oral, diet, no effects) of 25 mg/kg-day.

As a reminder, the LD50 is the dose expected to kill half of the subjects tested. A low value points to a more toxic substance. One may read the LC50 as the concentration that kills 50% of the test population. A lower LC50 goes with greater toxicity. As usually defined, the NOAEL is the highest dose or exposure tested at which no adverse effect was seen. Broadly, the LOAEL is the lowest dose or exposure tested at which an adverse effect was seen.

(Values after EPA's ToxValDB 9.5.)
